Legend:
[1] = biological target: T1, survivin (Homo sapiens, UniProt O15392); test: fluorescence intensity titration of the intrinsically fluorescent ligand with survivin ([…] fit); also CONA bead imaging, affinity resin capture, native PAGE; assay type: binding
T1 construct: gene BIRC5; His6-tagged full length survivin

[2] = biological target: T1, survivin; test: fluorescence intensity titration of the intrinsically fluorescent ligand with survivin; also CONA bead imaging and affinity resin capture; assay type: binding

T1 sequence (O15392 whole entry): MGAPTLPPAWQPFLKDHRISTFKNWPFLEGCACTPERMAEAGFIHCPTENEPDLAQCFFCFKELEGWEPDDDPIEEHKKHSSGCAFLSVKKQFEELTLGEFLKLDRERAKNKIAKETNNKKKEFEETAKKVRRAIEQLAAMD

Row | SMILES | Kd [1] [µM] | Kd [2] [µM]
1 | CCCCCC1=C/C(=C/c2[nH]c(-c3ccc[nH]3)cc2OC)N=C1C [compound 2, prodigiosin] | 11.5 ± 3.1 | 
2 | COc1cc2[nH]c1/C=C1/C=CC(=N1)CCCCCCCCCc1ccc-2[nH]1 [compound 1, cyclononylprodigiosin] |  | 149 ± 8.3

Source: PMC8342005, “A two-step resin based approach to reveal survivin-selective fluorescent probes” (RSC Chemical Biology, 2020)
